Assay results from the NIST ThermoML archive (doi:10.1016/j.fluid.2016.06.019).

Tests used:
[1] = refractive index (Na D-line) (dimensionless); wn = mass fraction of the nth substance listed; details: 298.15 K, 100 kPa, Liquid, Standard Abbe refractometry
[2] = wn = mass fraction of the nth substance listed; details: 298.15 K, 100 kPa, Liquid, Vibrating tube method
[3] = refractive index (Na D-line) (dimensionless); details: 298.15 K; 100 kPa; Liquid; Standard Abbe refractometry

N.N.O=S(=O)(O)O [ammonium sulfate] + O
Details	mass density, [2] [kg/m3]	refractive index, [1]
w1 = 0.0005	997.4	1.33259
w1 = 0.0011	997.7	1.33268
w1 = 0.0053	1000.3	1.33337
w1 = 0.0104	1003.3	1.33425
w1 = 0.0208	1009.4	1.33594
w1 = 0.0412	1021.2	1.33921
w1 = 0.0712	1038.4	1.34393
w1 = 0.1007	1055.3	1.34856

O=S(=O)([O-])[O-].[Na+].[Na+] [sodium sulfate] + O
Details	mass density, [2] [kg/m3]	refractive index, [1]
w1 = 0.0005	997.6	1.33258
w1 = 0.0011	998.1	1.33266
w1 = 0.0053	1002	1.33331
w1 = 0.0108	1006.9	1.33414
w1 = 0.0214	1016.5	1.3357
w1 = 0.042	1035.1	1.33875
w1 = 0.0719	1062.6	1.34307
w1 = 0.0994	1088.5	1.34535

O [water]
Details	refractive index
[3]	1.3325

O [water] + N.N.O=S(=O)(O)O
Details	refractive index
[1], w2 = 0	1.3325

O [water] + O=S(=O)([O-])[O-].[Na+].[Na+]
Details	refractive index
[1], w2 = 0	1.3325
